Marks after values point to notes of the source that are not given here.
Experiments:
Format in all cases: in vivo
[1] = system: Pyricularia oryzae; settings: preventive spray on rice seedlings; 100 = 100% disease control, 0 = no control; concentration not marked in table
[2] = system: Phytophthora infestans; settings: preventive spray on tomato seedlings; 100 = 100% disease control, 0 = no control; concentration not marked in table
[3] = system: Plasmopara viticola; experiment: TEST E: preventive spray on grape seedlings, grape downy mildew, disease rating
[4] = system: Plasmopara viticola; experiment: TEST G: curative spray on inoculated grape seedlings, grape downy mildew, disease rating; settings: for curative utility: curative (post-infection) use, especially for grape downy mildew, statement in words; for Test G disease control rating (grape downy mildew, curative): curative spray on inoculated grape seedlings
[5] = system: Erysiphe graminis f. sp. tritici; experiment: TEST A: preventive spray on wheat seedlings, wheat powdery mildew, disease rating; settings: 100 = 100% disease control, 0 = no control relative to controls, concentration not marked in table
[6] = system: Puccinia recondita; experiment: TEST B: preventive spray on wheat seedlings, wheat leaf rust, disease rating; settings: 100 = 100% disease control, 0 = no control, concentration not marked in table
[7] = 100 = 100% disease control, 0 = no control, concentration not marked in table
[8] = concentration not marked in table

SMILES | Test C disease control rating (rice blast) [1] [%] | Test D disease control rating (potato and tomato late blight) [2] [%] | Test E disease control rating (grape downy mildew) [3, 7] [%] | curative utility [4] | Test G disease control rating (grape downy mildew, curative) ([4]; 100 ppm) | Test E disease control rating (grape downy mildew) ([3]; 100 ppm) | Test G disease control rating (grape downy mildew, curative) ([4]; 20 ppm) | Test A disease control rating (wheat powdery mildew) [5] [%] | Test B disease control rating (wheat leaf rust) [6] [%] | Test G disease control rating (grape downy mildew, curative) [4, 8] [%]
CC(NC(=O)c1c(Cl)ccnc1Cl)c1ncc(C(F)(F)F)cc1Cl (racemic) [Compound 30] | 0 | 100 | 100 | significant curative utility | 100* % |  |  |  |  | 
CC(NC(=O)c1c(Cl)ccnc1Cl)c1ncc(C(F)(F)F)cc1Cl (single isomer, unassigned) [Cmpd 38] |  |  |  |  |  | 69* % | 0** % |  |  | 
O=C(NCc1ncc(C(F)(F)F)cc1Cl)c1cnc(Cl)c(Cl)c1 [Cmpd 7] |  |  |  |  |  |  |  | 0 | 0 | 
Nc1ncccc1C(=O)NCc1ncc(C(F)(F)F)cc1Cl [Cmpd 9] | 0 | 7 | 0 |  |  |  |  | 0 | 28 | 
O=C(NCc1ncc(C(F)(F)F)cc1Cl)c1cncc(Br)c1 [Cmpd 10] | 74 | 16 | 0 |  |  |  |  | 0 | 9 | 
O=C(NCc1ncc(C(F)(F)F)cc1Cl)c1cccnc1O [Cmpd 11] | 0 | 7 | 8 |  |  |  |  | 0 | 9 | 
COc1ncccc1C(=O)NCc1ncc(C(F)(F)F)cc1Cl [Cmpd 12] | 0 | 7 | 24 |  |  |  |  | 0 | 19 | 
CCOc1ncccc1C(=O)NCc1ncc(C(F)(F)F)cc1Cl [Cmpd 13] | 0 | 3 | 23 |  |  |  |  | 0 | 9 | 
Cc1ccc(C(=O)NCc2ncc(C(F)(F)F)cc2Cl)c(Cl)n1 [Cmpd 14] | 90 | 100 | 98 |  |  |  |  | 0 | 19 | 
O=C(NCc1ncc(C(F)(F)F)cc1Cl)c1cccnc1Oc1ccccc1 [Cmpd 15] | 30 | 7 | 8 |  |  |  |  | 0 | 38 | 
O=C(NCc1ncc(C(F)(F)F)cc1Cl)c1cccnc1Sc1ccccc1 [Cmpd 16] | 100 | 34 | 8 |  |  |  |  | 0 | 9 | 
O=C(NCc1ncc(C(F)(F)F)cc1Cl)c1cncc(C#Cc2ccccc2)c1 [Cmpd 17] | 0 | 25 | 0 |  |  |  |  | 13 | 0 | 
O=C(NCc1ncc(C(F)(F)F)cc1Cl)c1ccc(C(F)(F)F)nc1Br [Cmpd 18] | 80 | 32 | 0 |  |  |  |  | 0 | 9 | 
Cc1ccc(C(=O)NCc2ncc(C(F)(F)F)cc2Cl)c(O)n1 [Cmpd 19] | 0 | 7 | 8 |  |  |  |  | 0 | 9 | 
Cc1nc(C(F)(F)F)ccc1C(=O)NCc1ncc(C(F)(F)F)cc1Cl [Cmpd 20] | 87 | 25 | 8 |  |  |  |  | 0 | 28 | 
Cc1nc(C(F)(F)C(F)(F)F)ccc1C(=O)NCc1ncc(C(F)(F)F)cc1Cl [Cmpd 21] | 88 | 16 | 8 |  |  |  |  | 69 | 68 | 

SMILES | Test C disease control rating (rice blast) [1] [%] | Test D disease control rating (potato and tomato late blight) [2] [%] | Test E disease control rating (grape downy mildew) [3, 7] [%] | curative utility [4] | Test G disease control rating (grape downy mildew, curative) ([4]; 100 ppm) | Test E disease control rating (grape downy mildew) ([3]; 100 ppm) | Test G disease control rating (grape downy mildew, curative) ([4]; 20 ppm) | Test A disease control rating (wheat powdery mildew) [5] [%] | Test B disease control rating (wheat leaf rust) [6] [%] | Test G disease control rating (grape downy mildew, curative) [4, 8] [%]
COc1nc(C(F)(F)F)ccc1C(=O)NCc1ncc(C(F)(F)F)cc1Cl [Cmpd 22] | 0 | 7 | 0 |  |  |  |  | 0 | 0 | 
COCc1nc(C(F)(F)F)ccc1C(=O)NCc1ncc(C(F)(F)F)cc1Cl [Cmpd 23] | 7 | 32 | 8 |  |  |  |  | 72 | 9 | 
O=C(NCc1ncc(C(F)(F)F)cc1Cl)c1ccc(C(F)(F)F)nc1-c1ccccc1 [Cmpd 24] | 7 | 25 | 8 |  |  |  |  | 0 | 0 | 
Cc1nc(Cl)ccc1C(=O)NCc1ncc(C(F)(F)F)cc1Cl [Cmpd 25] | 13 | 79 | 16 |  |  |  |  | 0 | 9 | 
O=C(NCc1ncc(C(F)(F)F)cc1Cl)c1ccc(C(F)(F)F)nc1 [Cmpd 26] | 0 | 25 | 0 |  |  |  |  | 0 | 32 | 
O=C(NCc1ncc(C(F)(F)F)cc1Cl)c1cccnc1Nc1cccc(C(F)(F)F)c1 [Cmpd 27] | 0 | 32 | 16 |  |  |  |  | 0 | 0 | 
Cc1ncccc1C(=O)NCc1ccc(Cl)nc1 [Cmpd 32] | 0 | 32 |  |  |  |  |  | 0 | 0 | 
Cc1ncccc1C(=O)NCc1ccc(Oc2cccc(C(F)(F)F)c2)nc1 [Cmpd 33] |  | 71 |  |  |  |  |  | 91 |  | 
COc1cc(C(=O)NCc2ncc(C(F)(F)F)cc2Cl)cc(Cl)n1 [Cmpd 34] |  | 31 |  |  |  |  |  | 0 | 44 | 
Cc1cnc(C(=O)NCc2ncc(C(F)(F)F)cc2Cl)c(Cl)c1 [Compound 2] |  | 100 |  | significant curative utility |  |  |  | 0 |  | 99
O=C(NCc1ncc(C(F)(F)F)cc1Cl)c1cccnc1Cl [Compound 5] |  |  | 98 | significant curative utility |  |  |  |  | 19 | 99
Cc1cc(Cl)c(C(=O)NCc2ncc(C(F)(F)F)cc2Cl)c(Cl)n1 [Compound 8, 2,4-Dichloro-N-[[3-chloro-5-(trifluoromethyl)-2-pyridinyl]methyl]-6-methyl-3-pyridinecarboxamide] |  | 100 | 100 | significant curative utility |  |  |  | 0 | 8 | 96
Cc1cnc(Cl)c(C(=O)NCc2ncc(C(F)(F)F)cc2Cl)c1Cl [Compound 29] | 0 | 100 | 100 | significant curative utility | 100* % |  |  |  |  | 
C[C@@H](NC(=O)c1c(Cl)ccnc1Cl)c1ncc(C(F)(F)F)cc1Cl [Compound 31, 2,4-dichloro-N-[(1R)-1-[3-chloro-5-(trifluoromethyl)-2-pyridinyl]ethyl]-3-pyridinecarboxamide] | 0 | 100 | 100 | significant curative utility |  |  | 100** % |  |  | 
O=C(NCc1ncc(C(F)(F)F)cc1Cl)c1c(Cl)cncc1Cl [Compound 35] |  | 100 | 100 | significant curative utility | 100* % |  |  | 0 | 30 | 

Source: patent US7074742B2, “Pyridinyl amides and imides for use as fungicides” (E. I. du Pont de Nemours and Company, priority 2000, dated 2006)
